Measurements published in US12545640B2, “Substituted 6,7-dihydro-5H-benzo[7]annulene compounds, processes for their preparation and therapeutic uses thereof” (SANOFI, priority 2019, dated 2026).

molecular target: T1, ERα (Homo sapiens, UniProt P03372); assay: Estrogen receptor degradation activity: breast cancer cell ERα in cell western assay (MCF7 cells); assay type: cell-based; conditions: 4 hours, final concentrations ranging from 3-0.000018 μM, relative to fulvestrant 0.1 μM positive control
T1 construct: host or cells: MCF7 cells
T1 sequence (P03372 1-595): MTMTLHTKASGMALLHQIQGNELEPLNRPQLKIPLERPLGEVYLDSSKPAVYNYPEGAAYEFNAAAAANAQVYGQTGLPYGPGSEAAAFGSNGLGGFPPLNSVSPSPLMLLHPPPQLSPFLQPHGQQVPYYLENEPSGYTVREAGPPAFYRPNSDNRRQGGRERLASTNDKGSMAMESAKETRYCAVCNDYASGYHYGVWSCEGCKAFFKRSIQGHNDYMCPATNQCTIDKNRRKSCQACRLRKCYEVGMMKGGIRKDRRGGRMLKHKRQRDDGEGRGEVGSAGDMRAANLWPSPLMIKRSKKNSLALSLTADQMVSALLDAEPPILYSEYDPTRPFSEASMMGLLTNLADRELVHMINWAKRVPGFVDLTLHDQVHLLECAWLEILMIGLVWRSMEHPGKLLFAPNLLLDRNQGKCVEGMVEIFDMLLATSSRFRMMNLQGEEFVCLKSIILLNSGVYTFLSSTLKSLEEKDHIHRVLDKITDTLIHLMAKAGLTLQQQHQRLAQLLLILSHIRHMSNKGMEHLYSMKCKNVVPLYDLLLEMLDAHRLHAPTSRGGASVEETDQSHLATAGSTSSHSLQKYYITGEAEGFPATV
Experimental: Test: Estrogen Receptor Degradation Activity
Said test involves measuring the in vitro degradation activity of the compounds of the invention.
The measurements of the degradation activities were made using a breast cancer cell ERα in cell western assay as described hereunder.
MCF7 cells (ATCC) were seeded in 384 wells microplate (collagen coated) at a concentration of 10000 cells/30 μL, per well in red phenol free MEM alpha medium (invitrogen) containing 5% charcoal dextran striped FBS. The following day, 9 points serial 1:5 dilution of each compound was added to the cells in 2.5 μL at final concentrations ranging either from 3-0.000018 μM (column «% Degradation at 3 μM in table 2) or from 0.3-0.0000018 μM (column «% Degradation at 0.3 μM in table 2), or 0.1 μM for fulvestrant (using as positive control). At 4 hours post compound addition the cells were fixed by adding 25 μL of formalin (final concentration 5% formalin containing 0.1% triton) for 10 minutes at room temperature and then washed twice with PBS. Then, 50 μL of LI-COR blocking buffer containing 0.1% Triton was added to plate for 30 minutes at room temperature. LI-COR blocking buffer was removed and cells were incubated overnight at cold room with 50 μL anti-ER rabbit monoclonal antibody (Thermo scientific MA1-39540) diluted at 1:1000 in LI-COR blocking buffer containing 0.1% tween-20. Wells which were treated with blocking buffer but no antibody were used as background control. Wells were washed twice with PBS (0.1% tween-20) and incubated at 37° C. for 60 minutes in LI-COR (0.1% tween-20) containing goat anti-rabbit antibody Alexa 488 (1:1000) and Syto-64 a DNA dye ([…]). Cells were then washed 3 times in PBS and scanned in ACUMEN explorer (TTP-Labtech). Integrated intensities in the green fluorescence and red fluorescence were measured to determine the levels of ERα and DNA respectively.

First: CS(=O)(=O)NC(=O)c1ccc2c(c1)CCCC(c1ccc(Cl)cc1Cl)=C2c1ccc(O[C@H]2CCN(CCCF)C2)cc1 [Example 15, (S)-8-(2,4-dichlorophenyl)-9-(4-((1-(3-fluoropropyl)pyrrolidin-3-yl)oxy)phenyl)-(methylsulfonyl)-6,7-dihydro-5H-benzo[7]annulene-3-carboxamide]
Second: O=C(NO)c1ccc2c(c1)CCCC(c1ccc(Cl)cc1Cl)=C2c1ccc(O[C@H]2CCN(CCCF)C2)cc1 [Example 18, (S)-8-(2,4-dichlorophenyl)-9-(4-((1-(3-fluoropropyl)pyrrolidin-3-yl)oxy)phenyl)-N-hydroxy-6,7-dihydro-5H-benzo[7]annulene-3-carboxamide]
The “% Degradation At 3 μM” value of the first is higher: 90% for the first, 85% for the second.

Going from `FCCCN1CC[C@H](Oc2ccc(C3=C(c4ccc(Cl)cc4Cl)CCCc4cc(-c5nn[nH]n5)ccc43)cc2)C1` [Example 16, (S)-5-(8-(2,4-dichlorophenyl)-9-(4-((1-(3-fluoropropyl)pyrrolidin-3-yl)oxy)phenyl)-6,7-dihydro-5H-benzo[7]annulen-3-yl)-2H-tetrazole] to `O=C(Nc1nn[nH]n1)c1ccc2c(c1)CCCC(c1ccc(Cl)cc1Cl)=C2c1ccc(O[C@H]2CCN(CCCF)C2)cc1` [Example 17, (S)-8-(2,4-dichlorophenyl)-9-(4-((1-(3-fluoropropyl)pyrrolidin-3-yl)oxy)phenyl)-N-(2H-tetrazol-5-yl)-6,7-dihydro-5H-benzo[7]annulene-3-carboxamide], the “% Degradation At 3 μM” value falls from 86% to 84%.

First: CONC(=O)c1ccc2c(c1)CCCC(c1ccc(Cl)cc1Cl)=C2c1ccc(O[C@H]2CCN(CCCF)C2)cc1 [Example 19, (S)-8-(2,4-dichlorophenyl)-9-(4-((1-(3-fluoropropyl)pyrrolidin-3-yl)oxy)phenyl)-N-methoxy-6,7-dihydro-5H-benzo[7]annulene-3-carboxamide]
Second: COC(=O)Nc1ccc2c(c1)CCCC(c1ccc(Cl)cc1Cl)=C2c1ccc(O[C@H]2CCN(CCCF)C2)cc1 [Example 25, Methyl (S)-(8-(2,4-dichlorophenyl)-9-(4-((1-(3-fluoropropyl)pyrrolidin-3-yl)oxy)phenyl)-6,7-dihydro-5H-benzo[7]annulen-3-yl)carbamate]
The “% Degradation At 3 μM” value of the first is higher: 86% for the first, 65% for the second.

First: O=C(O)/C=C/c1ccc2c(c1)CCCC(c1ccc(Cl)cc1Cl)=C2c1ccc(O[C@H]2CCN(CCCF)C2)cc1 [Example 20, (S,E)-3-(8-(2,4-dichlorophenyl)-9-(4-((1-(3-fluoropropyl)pyrrolidin-3-yl)oxy)phenyl)-6,7-dihydro-5H-benzo[7]annulen-3-yl)acrylic acid]
Second: N#Cc1ccc2c(c1)CCCC(c1ccc(Cl)cc1Cl)=C2c1ccc(O[C@H]2CCN(CCCF)C2)cc1 [Example 22, (S)-8-(2,4-dichlorophenyl)-9-(4-((1-(3-fluoropropyl)pyrrolidin-3-yl)oxy)phenyl)-6,7-dihydro-5H-benzo[7]annulene-3-carbonitrile]
The “% Degradation At 3 μM” value of the first is higher: 85% for the first, 82% for the second.

First: FCCCN1CC[C@H](Oc2ccc(C3=C(c4ccc(Cl)cc4Cl)CCCc4cc(-c5cn[nH]c5)ccc43)cc2)C1 [Example 21, (S)-4-(8-(2,4-dichlorophenyl)-9-(4-((1-(3-fluoropropyl)pyrrolidin-3-yl)oxy)phenyl)-6,7-dihydro-5H-benzo[7]annulen-3-yl)-1H-pyrazole]
Second: O=c1[nH]nc(-c2ccc3c(c2)CCCC(c2ccc(Cl)cc2Cl)=C3c2ccc(O[C@H]3CCN(CCCF)C3)cc2)o1 [Example 31, (S)-5-(8-(2,4-dichlorophenyl)-9-(4-((1-(3-fluoropropyl)pyrrolidin-3-yl)oxy)phenyl)-6,7-dihydro-5H-benzo[7]annulen-3-yl)-1,3,4-oxadiazol-2(3H)-one]
The “% Degradation At 3 μM” value of the first is lower: 78% for the first, 95% for the second.

`FCCCN1CC[C@H](Oc2ccc(C3=C(c4ccc(OC(F)(F)F)cc4)CCCc4cc(-c5cn[nH]c5)ccc43)cc2)C1` [Example 23, (S)-4-(9-(4-((1-(3-fluoropropyl)pyrrolidin-3-yl)oxy)phenyl)-8-(4-(trifluoromethoxy)phenyl)-6,7-dihydro-5H-benzo[7]annulen-3-yl)-1H-pyrazole] and `FCCCN1CC[C@H](Oc2ccc(C3=C(c4ccc(OC(F)(F)F)cc4)CCCc4cc(OC(F)F)ccc43)cc2)C1` [Example 24, (S)-3-(4-(3-(difluoromethoxy)-8-(4-(trifluoromethoxy)phenyl)-6,7-dihydro-5H-benzo[7]annulen-9-yl)phenoxy)-1-(3-fluoropropyl)pyrrolidine] are the same in “% Degradation At 3 μM” value: 74% for the first, 74% for the second.

First: N=C(NO)c1ccc2c(c1)CCCC(c1ccc(Cl)cc1Cl)=C2c1ccc(O[C@H]2CCN(CCCF)C2)cc1 [Example 26, (S)-8-(2,4-dichlorophenyl)-9-(4-((1-(3-fluoropropyl)pyrrolidin-3-yl)oxy)phenyl)-N-hydroxy-6,7-dihydro-5H-benzo[7]annulene-3-carboximidamide]
Second: CS(=O)(=O)Nc1ccc2c(c1)CCCC(c1ccc(Cl)cc1Cl)=C2c1ccc(O[C@H]2CCN(CCCF)C2)cc1 [Example 30, (S)—N-(8-(2,4-dichlorophenyl)-9-(4-((1-(3-fluoropropyl)pyrrolidin-3-yl)oxy)phenyl)-6,7-dihydro-5H-benzo[7]annulen-3-yl)methane sulfonamide]
The “% Degradation At 3 μM” value of the first is higher: 90% for the first, 70% for the second.

Going from `O=c1[nH]c(-c2ccc3c(c2)CCCC(c2ccc(Cl)cc2Cl)=C3c2ccc(O[C@H]3CCN(CCCF)C3)cc2)no1` [Example 27, (S)-3-(8-(2,4-dichlorophenyl)-9-(4-((1-(3-fluoropropyl)pyrrolidin-3-yl)oxy)phenyl)-6,7-dihydro-5H-benzo[7]annulen-3-yl)-1,2,4-oxadiazol-5(4H)-one] to `FCCCN1CC[C@H](Oc2ccc(C3=C(c4ccc(Cl)cc4Cl)CCCc4cc(-c5noc(=S)[nH]5)ccc43)cc2)C1` [Example 34, (S)-3-(8-(2,4-dichlorophenyl)-9-(4-((1-(3-fluoropropyl)pyrrolidin-3-yl)oxy)phenyl)-6,7-dihydro-5H-benzo[7]annulen-3-yl)-1,2,4-oxadiazole-5(4H)-thione], the “% Degradation At 3 μM” value falls from 71% to 66%.

Going from `Cl.O=S1NC(c2ccc3c(c2)CCCC(c2ccc(Cl)cc2Cl)=C3c2ccc(O[C@H]3CCN(CCCF)C3)cc2)=NO1` (stereo partly drawn) [Example 29, 4-(8-(2,4-dichlorophenyl)-9-(4-(((S)-1-(3-fluoropropyl)pyrrolidin-3-yl)oxy)phenyl)-6,7-dihydro-5H-benzo[7]annulen-3-yl)-3H-1,2,3,5-oxathiadiazole 2-oxide hydrochloride] to `O=c1oc(-c2ccc3c(c2)CCCC(c2ccc(Cl)cc2Cl)=C3c2ccc(O[C@H]3CCN(CCCF)C3)cc2)ns1` [Example 33, (S)-5-(8-(2,4-dichlorophenyl)-9-(4-((1-(3-fluoropropyl)pyrrolidin-3-yl)oxy)phenyl)-6,7-dihydro-5H-benzo[7]annulen-3-yl)-1,3,4-oxathiazol-2-one], the “% Degradation At 3 μM” value rises from 91% to 95%.

First: CC(C)(C)OC(=O)Nc1ccc2c(c1)CCCC(c1ccc(Cl)cc1Cl)=C2c1ccc(O[C@H]2CCN(CCCF)C2)cc1 [Example 32, Tert-butyl (S)-(8-(2,4-dichlorophenyl)-9-(4-((1-(3-fluoropropyl)pyrrolidin-3-yl)oxy)phenyl)-6,7-dihydro-5H-benzo[7]annulen-3-yl)carbamate]
Second: O=S(=O)(Nc1ccc2c(c1)CCCC(c1ccc(Cl)cc1Cl)=C2c1ccc(O[C@H]2CCN(CCCF)C2)cc1)C(F)(F)F [Example 35, (S)—N-(8-(2,4-dichlorophenyl)-9-(4-((1-(3-fluoropropyl)pyrrolidin-3-yl)oxy)phenyl)-6,7-dihydro-5H-benzo[7]annulen-3-yl)-1,1,1-trifluoromethanesulfonamide]
The “% Degradation At 3 μM” value of the first is higher: 73% for the first, 52% for the second.

`O=c1c(O)c(Nc2ccc3c(c2)CCCC(c2ccc(Cl)cc2Cl)=C3c2ccc(O[C@H]3CCN(CCCF)C3)cc2)c1=O` [Example 36, (S)-3-((8-(2,4-dichlorophenyl)-9-(4-((1-(3-fluoropropyl)pyrrolidin-3-yl)oxy)phenyl)-6,7-dihydro-5H-benzo[7]annulen-3-yl)amino)-4-hydroxycyclobut-3-ene-1,2-dione] was tested, and the “% Degradation At 3 μM” value was 93%.
